Measured values: patent US4379165A, “Anti-convulsant” (priority 1981, dated 1983)
“Also recorded” adds a separate entry of the source. Where two headings read alike, the source gives them in different places.

How the values were obtained:
[1] = test system: maximal electroshock seizures; assay: maximal electroshock seizure (MES) pattern test, mice; conditions: for ED50: Mus musculus, read-out: ED50 MES
Description: (§1) The solution was prepared by dissolving the compound in 30% polyethylene glycol 400. The compound was injected either orally or intraperitoneally in a volume of 0.01 ml/g body weight in mice and 0.04 ml/10 g body weight in rats.
(§2) The profile of anti-convulsant activity for each substance was established by five tests: one electrical and four chemical. The electrical test employed was the maximal electroshock seizure (MES) pattern test. […] These tests are conducted by administering the anti-convulsant compound or drug to the animals then giving the convulsive amount of electrical energy or chemical convulsant and measuring the ability of the test compound to prevent the production of convulsions.
(§3) This test measures the ability of the test drug to abolish the hind-limb tonic-extensor component of maximal seizures induced by 50 mA of current delivered to the animals for 0.2 seconds.

[2] = in vivo; conditions: mouse
Description: as §1
(§4) Untreated or normal animals can easily maintain their balance in this test.

[3] = test system: subcutaneous metrazol seizure threshold; assay: subcutaneous Metrazol Seizure Threshold Test (sc Met), mice; conditions: for ED50: Mus musculus, read-out: ED50 sc Met
Description: as §1
(§5) The profile of anti-convulsant activity for each substance was established by five tests: one electrical and four chemical. The electrical test employed was the maximal electroshock seizure (MES) pattern test. The four chemical tests included the subcutaneous Metrazol Seizure Threshold Test (sc Met), subcutaneous Bicuculline Seizure Threshold Test (sc Bic), subcutaneous Picrotoxin Seizure Threshold Test (sc Pic), and the subcutaneous Strychnine Seizure Pattern Test (sc Strych). These tests are conducted by administering the anti-convulsant compound or drug to the animals then giving the convulsive amount of electrical energy or chemical convulsant and measuring the ability of the test compound to prevent the production of convulsions.
(§6) (b) scMet=Subcutaneous metrazol seizure threshold test. The test measures the ability of the test drug to afford complete protection against a subcutaneously administered convulsant dose of metrazol.
(§7) (j) PI=Protective index, defined as the ratio of TD50 to ED50 (TD50/ED50).

[4] = as above; conditions: mouse, in vivo, PI (TD50/ED50) sc Met, mice
Description: as §1, §5, §6, §7

[5] = in vivo; conditions: mouse; remark: listed apart in the source
Description: as §1, §2, §3

[6] = test system: subcutaneous bicuculline seizure threshold; assay: subcutaneous Bicuculline Seizure Threshold Test (sc Bic); conditions: for ED50: Mus musculus, ip, read-out: ED50 Bicuculline, mice
Description: as §1
(§8) The profile of anti-convulsant activity for each substance was established by five tests: one electrical and four chemical. […] The four chemical tests included the subcutaneous Metrazol Seizure Threshold Test (sc Met), subcutaneous Bicuculline Seizure Threshold Test (sc Bic), subcutaneous Picrotoxin Seizure Threshold Test (sc Pic), and the subcutaneous Strychnine Seizure Pattern Test (sc Strych). These tests are conducted by administering the anti-convulsant compound or drug to the animals then giving the convulsive amount of electrical energy or chemical convulsant and measuring the ability of the test compound to prevent the production of convulsions.
(c) scBic=Subcutaneous bicuculline seizure threshold test.
as §7

[7] = test system: subcutaneous picrotoxin seizure threshold; assay: animal or person; conditions: Mus musculus, ip, read-out: ED50 Picrotoxin
Description: as §1, §5
(§9) (d) scPic=Subcutaneous picrotoxin seizure threshold test.
(§10) (j) PI=Protective index, defined as the ratio of TD50 to ED50 (TD50/ED50). The PI is a measure of the safety of the drug. A high PI value indicates a greater margin of safety between the effective dose for the pharmacological effect and the toxic dose producing side-effects. A compound with a high PI would be a safer drug to use.

[8] = test system: subcutaneous picrotoxin seizure threshold; conditions: mice
Description: as §1, §5, §9, §10

[9] = hypnosis (loss of righting reflex), HD50; conditions: mouse, in vivo, ip
Description: as §1
(§11) (h) HD50=Hypnotic dose in 50% of the subjects tested.
(§12) (l) Slope of regression line--This represents the rate of change in response (effect) for a change in dose. The higher the numerical value of the slope, the greater the rate of change in response.

[10] = test system: righting reflex; assay: hypnosis (loss of righting reflex), HD50; conditions: mice; intraperitoneal
Description: as §1, §11, §12

[11] = test system: Salmonella indicator organisms; assay: in vitro microbial mutagenicity assays; conditions: 1.0 ug to 10,000.0 ug per plate
Description: The amide was examined for mutagenic activity in a series of in vitro microbial assays employing Salmonella indicator organisms. The compound was tested directly and in the presence of liver microsomal enzyme preparations from Aroclor-induced rats. The dose range employed for the evaluation was from 1.0 ug to 10,000.0 ug per plate. The results of the tests conducted on the amide in the absence of a metabolic activation system and in the presence of a rat liver activation system were negative.

[12] = test system: convulsions; assay: anti-convulsant activity, overall statements from animal studies; assay type: in vivo; conditions: mice and rats
[13] = test system: subcutaneous metrazol seizure threshold; assay: subcutaneous Metrazol Seizure Threshold Test (sc Met), rats; conditions: for animals protected vs sc Met test: intraperitoneal, footnote of Table 5; for ED50: Rattus norvegicus, po
Description: as §1, §5, §6, §7

[14] = test system: maximal electroshock seizures; assay: maximal electroshock seizure (MES) pattern test, rats; conditions: for ED50: Rattus norvegicus, po, read-out: ED50 MES
Description: as §1, §2, §3

[15] = as above; conditions: rat, in vivo, po, PI (TD50/ED50) MES, rats (Table 7; title of Table 5 prints Mice)
Description: as §1, §2, §3

[16] = Rotorod Toxicity Test, rats; assay type: in vivo; conditions: rat, in vivo, po
Description: as §1, §4

[17] = test system: ability to maintain balance on a rotating rod; assay: Rotorod Toxicity Test, rats; assay type: in vivo; conditions: for animals toxic: intraperitoneal, footnote of Table 5
Description: as §1, §4

[18] = lethality, LD50; assay type: in vivo; conditions: mouse, in vivo, ip, mice, intraperitoneal; for LD50 at 24 h: 24-hour period
Description: (§13) The anti-convulsant amide (4) was administered to mice and rats as a solution. The solution was prepared by dissolving the compound in 30% polyethylene glycol 400. The compound was injected either orally or intraperitoneally in a volume of 0.01 ml/g body weight in mice and 0.04 ml/10 g body weight in rats.

[19] = test system: ability to maintain balance on a rotating rod
Description: as §1, §4

[20] = test system: subcutaneous strychnine seizure pattern; conditions: mice
Description: as §1, §8
(§14) (e) ScStrych=Subcutaneous strychnine seizure pattern test. The test measures the ability of the test drug to abolish all toxic components of seizures induced by the subcutaneous injection of a convulsant dose of strychnine.

[21] = test system: subcutaneous strychnine seizure pattern; assay: animal or person; conditions: Mus musculus, ip, read-out: ED50 Strychnine
Description: as §1, §8, §14

[22] = test system: lethality; assay: lethality, LD50; assay type: in vivo; conditions: mice; intraperitoneal; 24-hour period
Description: as §13

[23] = in vivo; conditions: mouse, ip
Description: as §1, §11, §12

[24] = subcutaneous Metrazol Seizure Threshold Test (sc Met), rats; conditions: rat, in vivo, po
Description: as §1, §5, §6, §7

[25] = mice, oral, at / up to 300 (mg/kg)
[26] = rats (Table 7; title of Table 5 prints Mice), oral, at 300 (mg/kg)
[27] = rats (Table 7; title of Table 5 prints Mice), oral
[28] = mice, intraperitoneal, up to 100 (mg/kg)

CCCN(CCC)C(=O)c1ccc(N)cc1 [compound 5]
ED50 ([1]; ip): 61.7 mg/kg
TD50 ([2]; ip): 116 mg/kg

Nc1ccc(C(=O)NC2CCCCC2)cc1 [compound 2]
ED50 ([3]; ip): 123 mg/kg
ED50 ([1]; ip): 67.2 mg/kg
TD50 ([2]; ip): 189 mg/kg

CC(NC(=O)c1ccc(N)cc1)c1ccccc1 (stereo not drawn) [4-amino-N-(alpha-methylbenzyl)-benzamide]
selectivity ratio ([4]; intraperitoneal): 4.09
selectivity ratio ([4]; oral): < 0.9
ED50 ([3]; ip): 41.7 mg/kg
Maximum protection, sc Met ([3]; mice, oral, at 100 (mg/kg)): 25%
protection, sc Met [3, 25]: no protection and No
selectivity ratio ([5]; ip): 9.48
selectivity ratio ([5]; po): 5.69
ED50 ([6]; intraperitoneal): 39.1 mg/kg
activity against seizures induced by bicuculline ([6]; mice, in words): effective against seizures induced by bicuculline
PI (TD50/ED50) Bicuculline ([6]; mice, intraperitoneal): 4.37
ED50 [7]: 191 mg/kg
activity against picrotoxin seizures ([8]; in words): effective against picrotoxin seizures in toxic doses
PI (TD50/ED50) Picrotoxin ([8]; intraperitoneal): 0.89
TD50 [9]: 462 mg/kg
HD50 (righting reflex) [10]: 461.76 mg/kg
oral ED50/i.p. ED50 ([1]; MES test in mice): 2.65
ED50 ([1]; ip): 18 mg/kg
ED50 ([1]; po): 47.7 mg/kg
absorption after oral administration ([1]; mice, from oral ED50/i.p. ED50 in MES test): adequately absorbed
mutagenic activity ([11]; absence of a metabolic activation system): negative
mutagenic activity ([11]; rat liver activation system): negative
anti-convulsant activity in words [12]: effective against a wide range of convulsion types; also recorded: exhibits anti-convulsant activity in mice and rats
animals protected vs sc Met test ([13]; 75 mg/kg): 4/8
animals protected vs sc Met test ([13]; 150 mg/kg): 8/8
Max. Prot., sc Met [13, 26]: 50%
animals with recurring clonic seizures, sc Met [13, 26]: 1 of 8
TD50 ([2]; ip): 171 mg/kg
TD50 ([2]; po): 271 mg/kg
ED50 [14]: 16.1 mg/kg
PI (TD50/ED50) MES [14, 27]: 10.5
selectivity ratio [15]: 10.6
TD50 [16]: 170 mg/kg
animals toxic ([17]; 75 mg/kg): 2/8
animals toxic ([17]; 150 mg/kg): 6/8
selectivity ratio ([18]; read-out: Ratio LD50/HD50): 1.56
selectivity ratio ([18]; read-out: Ratio LD50/TD50): 4.21
LD50 at 24 h [18]: 718 mg/kg
Rotorod TD50 ([19]; mice, intraperitoneal): 170.78 mg/kg
activity against seizures induced by strychnine ([20]; in words): only partially effective
PI (TD50/ED50) Strychnine ([20]; intraperitoneal): < 0.85
Maximum protection, Strychnine ([20]; intraperitoneal, at 170 mg/kg): 37.5%
protection, Strychnine ([20]; intraperitoneal, at 200 (mg/kg)): 25%

CCC1(c2ccccc2)C(=O)NC(=O)NC1=O [Phenobarbital]
ED50 ([3]; ip): 13.2 mg/kg
ED50 ([3]; po): 12.6 mg/kg
ED50 ([6]; intraperitoneal): 37.7 mg/kg
ED50 [7]: 27.5 mg/kg
TD50 [9]: 135 mg/kg
HD50 (righting reflex) [10]: 135.45 mg/kg
ED50 ([1]; ip): 21.8 mg/kg
ED50 ([1]; po): 20.1 mg/kg
ED50 ([13]; read-out: ED50 sc Met, rats (Table 7; title of Table 5 prints Mice), oral): 11.6 mg/kg
ED50 sc Met [13, 27]: 11.58 mg/kg
ED50 [21]: 95.3 mg/kg
ED50 [14]: 9.14 mg/kg
Rotorod TD50 [17, 27]: 61.09 mg/kg
LD50 (lethality) [22]: 264.70 mg/kg

Nc1ccc(C(=O)Nc2ccccc2)cc1 [compound 1]
ED50 ([3]; ip): 59.1 mg/kg
ED50 ([1]; ip): 50.5 mg/kg
TD50 ([19]; mouse, in vivo, ip): 111.30 mg/kg

Nc1ccc(C(=O)NCc2ccccc2)cc1 [No. 4, 4-amino-N-benzyl-benzamide]
ED50 ([1]; ip): 23.3 mg/kg
TD50 ([2]; ip): 83.4 mg/kg

O=C1NC(=O)C(c2ccccc2)(c2ccccc2)N1 [Phenytoin]
protection, sc Met [3, 28]: No pro-
protection, sc Met ([3]; mice, intraperitoneal, up to 300 (mg/kg)): No protect-; also recorded: No protection
protection, sc Met [3, 25]: No protection; also recorded: No pro-
protection, Bicuculline [6, 28]: No pro-
protection, Picrotoxin ([8]; intraperitoneal, up to 100 (mg/kg)): No pro-
protection, sc Met ([13]; rats (Table 7; title of Table 5 prints Mice), oral, up to 800 (mg/kg)): No pro-
TD50 [23]: 178 mg/kg
ED50 [14]: 29.8 mg/kg
TD50 [16]: > 3000 mg/kg
LD50 (lethality) [22]: 229.61 mg/kg
Max. Prot., Strychnine ([20]; intraperitoneal, at 55-100 (mg/kg)): 50%

CCC1(c2ccccc2)NC(=O)N(C)C1=O (stereo not shown) [Mephenytoin]
selectivity ratio ([4]; intraperitoneal): 5.05
selectivity ratio ([4]; oral): 9.75
ED50 ([3]; ip): 30.4 mg/kg
ED50 ([3]; po): 36.3 mg/kg
PI (TD50/ED50) sc Met ([3]; mice, oral): 9.73
selectivity ratio ([5]; ip, PI (TD50/ED50) MES, mice, intraperitoneal): 2.54
selectivity ratio ([5]; po, PI (TD50/ED50) MES, mice): 5.37
PI (TD50/ED50) Bicuculline ([6]; mice, intraperitoneal): 1.24
ED50 [7]: 101 mg/kg
PI (TD50/ED50) Picrotoxin ([8]; intraperitoneal): 1.52
ED50 ([1]; ip): 60.5 mg/kg
ED50 ([1]; po): 65.9 mg/kg
selectivity ratio [24]: 3.96
ED50 ([13]; read-out: ED50 sc Met): 21.6 mg/kg
TD50 [23]: 406 mg/kg
TD50 ([2]; po): 354 mg/kg
ED50 [14]: 18.1 mg/kg
selectivity ratio [15]: 4.74
TD50 [16]: 85.7 mg/kg
selectivity ratio ([18]; read-out: Ratio LD50/HD50): 1.4
selectivity ratio ([18]; read-out: Ratio LD50/TD50): 3.69
LD50 at 24 h [18]: 568 mg/kg
Max. Prot., Strychnine ([20]; intraperitoneal, at 70-150 (mg/kg)): 50%

CCCCCNC(=O)c1ccc(N)cc1 [compound 3]
ED50 ([3]; ip): 57.3 mg/kg
ED50 ([1]; ip): 43 mg/kg
TD50 ([2]; ip): 68.5 mg/kg

NC(=O)N1c2ccccc2C=Cc2ccccc21 [Carbamazepine]
ED50 ([3]; po): 48.1 mg/kg
protection, sc Met [3, 28]: No protection; also recorded: No protect-
fraction protected, Bicuculline ([6]; mice, intraperitoneal, 100 mg/kg): 1/2
Max. Prot., Bicuculline ([6]; mice, intraperitoneal, at 50-130 (mg/kg)): 62.5%
ED50 [7]: 37.2 mg/kg
ED50 ([1]; ip): 8.81 mg/kg
ED50 ([1]; po): 15.4 mg/kg
sc Met result in words [13, 27]: Variable
TD50 [23]: 172 mg/kg
ED50 [21]: 78.8 mg/kg
ED50 [14]: 8.5 mg/kg
LD50 at 24 h [18]: 629 mg/kg
